{"source": "patent US9248187B2", "about": "“Oxadiazole inhibitors of leukotriene production for combination therapy” (Boehringer Ingelheim International GmbH, priority 2012, dated 2016)", "key": {"[1]": {"system": "atherosclerotic plaque in the descending aorta", "experiment": "13 week HF/HC diet rabbit model of atherosclerosis, on top of simvastatin", "type": "in vivo, NZW rabbits", "conditions": "compound 115 2.5 mg/kg and simvastatin 2.5 mg/kg; p=0.05", "protocol": "The objective of the study is to determine if the compounds of Formula I provide additional reduction in atherosclerosis development in high fat/high cholesterol (HF/HC) fed rabbits on top of simvastatin compared to simvastatin alone. Treatment with a statin is considered the standard of care for atherosclerosis clinically. In order to determine if the anti-atherosclerotic effect observed in rabbits is effective on top of statin treatment, rabbits were treated with compound 115 (Table 1) in combination with simvastatin and the effects on atherosclerosis reduction with both control and statin treatment alone were compared. […] The rabbits were fed 125 g of rabbit chow each day and both food consumption and body weights were measured throughout the study period. […] The extent of atherosclerosis development was measured in the descending aorta after the vessels were pinned out on the silicone surface of metal trays and stained with Sunan IV stain. […] The percentage of plaque area of the descending aorta was determined. […] Atherosclerotic lesion formation was quantified by image analysis software using ImagePro Plus software. The mean of thee different sections 100 μm apart was determined. The mean value of each parameter was calculated for each different treatment group and compared to the control value. […]"}, "[2]": {"target": "T1, recombinant human FLAP protein (Homo sapiens, UniProt P20292)", "T1 construct": "made in house; host or cells: Sf9 insect cells (membrane fraction, 100,000 x g pellet)", "T1 sequence (P20292 1-161)": "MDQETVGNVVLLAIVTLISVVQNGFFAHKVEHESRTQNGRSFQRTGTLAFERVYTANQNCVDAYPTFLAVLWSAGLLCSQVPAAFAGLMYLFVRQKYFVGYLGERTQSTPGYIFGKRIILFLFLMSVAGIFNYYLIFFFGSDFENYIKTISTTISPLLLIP", "experiment": "FLAP binding assay (SPA, displacement of [125I]L-691,831)", "conditions": "@1000 nM", "protocol": "Assessment of Biological Properties 1. Binding Assay\nCell pellets produced from sf9 insect cells expressing recombinant human FLAP protein are resuspended in buffer A [15 mM Tris-HCl (pH 7.5), 2 mM MgCl2, 0.3 mM EDTA, 1 mM PMSF]. The cells are lysed with a Dounce homogenizer and the material is centrifuged at 10,000×g for 10 minutes. The supernatant is then collected and centrifuged at 100,000×g for 60 minutes. To prepare membrane protein for an assay, an aliquot of the 100,000×g pellet is resuspended in 1 ml of buffer A, Dounce homogenized, and finally subjected to polytron mixing (30 seconds). Membrane protein (25 μl, 5 μg) is mixed with WGA SPA beads (Amersham) and stirred for 1 h."}, "proteinuria": {"system": "proteinuria", "conditions": "clinical trial, human glomerulonephritis; cited from earlier work"}}, "note": "Values joined by “and” are separate entries in the source; they are usually repeats but may differ in a detail not shown here. Equal entries are not always repeated."}
{"compound": "CN(C)C(=O)Cn1cc(-c2nc([C@@](C)(c3ccc(-c4cnc(N)nc4)cc3)C3CC3)no2)cn1", "note": "(single isomer, unassigned) [Example 115]", "values": [{"measurement": "further reduction in plaque area compared to simvastatin alone", "setting": "[1]", "value": "32% and 34%"}]}
{"compound": "CC(C)C(C)(c1ccc(-c2cnc(N)nc2)cc1)c1noc(O)n1", "note": "(stereo not drawn) [Example 88, 3-{1-[4-(2-Amino-pyrimidin-5-yl)-phenyl]-1,2-dimethyl-propyl}-[1,2,4]oxadiazol-5-ol]", "values": [{"measurement": "FLAP binding % inh", "setting": "[2]", "value": 51, "unit": "% inh@1000 nM"}]}
{"compound": "CC(C)(C)Sc1c(CC(C)(C)C(=O)O)n(Cc2ccc(Cl)cc2)c2ccc(OCc3ccc4ccccc4n3)cc12", "note": "[MK-591]", "values": [{"measurement": "effect on proteinuria", "setting": "proteinuria", "value": "reduce proteinuria"}]}
